Series [1] deals with OVCAR-3 ovarian cancer cells. In words: OVCAR-3 ovarian cancer tumor model in nude mice. The format is in vivo. How it is done: (§1) MP470 and MP470 HCl were tested against different tumor types in athymic nude mice as summarized below (Table 8). Various formulations and routes were evaluated. HT-29 colorectal cancer cells and SB-CL2 melanoma cells were implanted subcutaneously, while A549 lung cancer cells, MiaPaCa-2 pancreatic cancer cells, TT medullary thyroid cancer cells, and OVCAR-3 ovarian cancer cells were implanted […] in the hind flank of mice. All animals were allowed to develop medium-sized (80-125 mg) tumors, before initiation of dosing. Tumor volume and mouse bodyweight were followed over the course of the study.
OVCAR-3 Ovarian Cancer Model—Forty-two nude mice were implanted subcutaneously with OVCAR-3 ovarian carcinoma, the hydrochloride salt of MP470 (MP470.HCl) was formulated in 100% corn oil and delivered orally. MP470.HCl, cisplatin, and irinotecan were administered to animals alone or in combination. When administered alone, MP470.HCl was given qd at 100 or 200 mg/kg, irinotecan was given q3d at 20 mg/kg, and cisplatin was given q7d at 5 mg/kg. In combination studies, 100 mg/kg MP470.HCl was given qd and combined with 20 mg/kg irinotecan given q3d or 5 mg/kg cisplatin given q7d. One animal in the 200 mg/kg MP470.HCl group died on Day 1, while five animals in the MP470.HCl/cisplatin combination group died (one on Day 5, Day 6, Day 7, Day, 20, and Day 27). Treatment with each individual agent (200 mg/kg MP470.HCl, 46.2 mm3/d; 20 mg/kg irinotecan, 38.53 mm3/d; 5 mg/kg cisplatin, 33.8 mm3/d) reduced the tumor growth rate below that of vehicle-treated mice (78.04 mm3/d). […] In contrast, when MP470.HCl and cisplatin were used in combination, the tumor growth rate was reduced to 10.22 mm3/d. However, the 100 mg/kg dose of MP470.HCl in combination with cisplatin caused enhanced toxicity and most animals in this group died during the 21-day treatment period. The enhanced toxicity was related to the level of the dose used, so a subsequent study was conducted using half the dose, 50 mg/kg/day as described below.

For series [2] the following is noted: rat, in vivo, po. How it is done: Twenty-four rats were placed into four groups each consisting of three animals per sex. The animals were weighed the day before dosing, as well as just prior to dosing.
After intravenous infusion of MP470.HCl at 5 mg/kg, average MP470 peak plasma concentrations of 454.3 ng/mL for males and 370.7 ng/mL for females were attained at 0.083 hours (5 minutes), the first sampling point postdose. After oral administration of non-micronized MP470.HCl, peak plasma concentrations of MP470 were attained at 0.5-12 hours for Group 2 (25 mg/kg) and 4-12 hours for Group 3 (100 mg/kg, suspension). The extent of systemic exposure of rats to MP470, characterized by AUCO-∞, was approximately 3.8-fold and 2.9-fold higher in females than in males for Groups 2 and 3, respectively. Average AUCO-∞ values were higher at 100 mg/kg than at 25 mg/kg and the increases in AUCO-∞ were greater than dose-proportional.
After oral administration of micronized MP470.HCl (Group 4), peak plasma concentrations of MP470 were attained at 4-12 hours. The extent of systemic exposure of rats to MP470, characterized by AUCO-∞, was approximately 3.4-fold higher in females than in males for Group 4. The extent of exposure of rats to MP470, characterized by AUCO-∞, was 1.7-fold (males) and 1.4-fold (females) higher for non-micronized MP470 HCl (Group 3) than for micronized MP470 HCl (Group 4).

The test system of series [3] is γ-H2AX levels in OVCAR-3 (ovarian carcinoma) cells. Put plainly: DNA damage by γ-H2AX levels. The format is cell-based. As to conditions: single agent 10 μM; control 0.5% DMSO medium. How it is done: OVCAR-3 (ovarian carcinoma) cells were treated with MP470 (10 μM), MP470.HCl (10 μM), and/or topotecan (10 μM).
Series [4] is described as follows: Solubility of MP470 and its salts (Table 2). In kind it is physicochemical. As to conditions: water.
Series [5] concerns Rad51 in A549 non-small cell lung cancer cells. Put plainly: Rad51 protein level by Western blot in cells. In kind it is cell-based. As to conditions: 6.1 μM carboplatin, 24 hrs. How it is done: Rad51 protein levels were also determined in A549 non-small cell lung cancer cells using combinations with DNA damaging agents. Cells were treated for 24 hrs with 6.1 μM (IC30 of carboplatin alone) carboplatin in combination with 0.71 μM or 3.82 μM MP470.HCl. Protein lysates were isolated from treated and non-treated cells, separated by SDS-PAGE, and transferred to nitrocellulose. […] The increase in Rad51 due to carboplatin treatment was reduced by 26% when treated in combination with 0.71 μM MP470.HCl and by 42% with 3.82 μM MP470.HCl

Series [6] relates to A549 NSCLC cells. In words: Sensitization of NSCLC cells to carboplatin. In kind it is cell-based. As to conditions: A549, single agent. The procedure: (§2) The non-small cell lung cancer cell lines A549 and NCI-H647 were used for these experiments. […] The IC50 concentrations observed for carboplatin against both of these cell lines was consistent with this.
(§3) Two sub-IC50 doses of MP470.HCl were tested in combination with carboplatin to evaluate possible synergism between these agents and consequently a lower IC50 value for carboplatin in each of the cell lines.
(§4) MP470.HCl was able to dramatically decrease the IC50 of carboplatin in these cells.

Series [7] has as its system NCI-H647 NSCLC cells. Put plainly: Sensitization of NSCLC cells to carboplatin. In kind it is cell-based. To be noted: NCI-H647, single agent. The procedure:
as §2, §3, §4

The subject of series [8] is DMS-153 SCLC cells. In words: Sensitization of SCLC cells to etoposide. The format is cell-based. As to conditions: Homo sapiens; DMS-153, single agent. The procedure: (§5) Therefore, to determine if MP470 would increase sensitivity to etoposide treatment, SCLC cells were treated with the agents individually and in combination. […] Two sub-IC50 doses of MP470.HCl were tested in combination with etoposide to evaluate possible synergism and a resulting lower IC50 value for etoposide in each of the cell lines.

For series [9], the system named is DMS-114 SCLC cells. In words: Sensitization of SCLC cells to etoposide. The format is cell-based. To be noted: Homo sapiens; DMS-114, single agent. How it is done:
as §5

Series [10] has as its system A549 lung cancer cells. The format is in vivo. To be noted: Day 26, 10 mg/kg IP in sterile saline, qd×5×3 wk (vehicle 43). The procedure: as §1
A549 Lung Cancer Model—In 40 nude mice implanted intradermally with A549 lung cancer cells, animals were dosed with vehicle orally, MP470 in 100% corn oil orally, or 5-FU in sterile saline IP. […] […] While MP470 reduced tumor growth rates, treatment of these cells with 5-FU reduced the overall tumor growth rate per day further to 19.5 mm3/d on Day 26.
To determine whether MP470.HCl in combination with carboplatin increased the anti-tumor activity in xenograft tumors growing in vivo, the agents were administered alone and in combination and tumor growth was monitored. MP470.HCl (50 mg/kg) was combined with carboplatin (30 mg/kg) alone or carboplatin with taxol (20 mg/kg).

Read-outs that look alike come from different tables or passages of the source.

The text below walks through data of US8445502B2, “Pharmaceutical formulations comprising salts of a protein kinase inhibitor and methods of using same” (Astex Pharmaceuticals, Inc., priority 2007, dated 2013).

For the compound `CCc1c2c(nc3ccc(OC(=O)N4CCC(N5CCCCC5)CC4)cc13)-c1cc3c(c(=O)n1C2)COC(=O)[C@]3(O)CC` [irinotecan, reference compound], the tumor growth rate in series [1] (20 mg/kg q3d (vehicle 78.04)) is on record as 38.53 mm3/d. For `Cl.S=C(NCc1ccc2c(c1)OCO2)N1CCN(c2ncnc3c2oc2ccccc23)CC1` [non-micronized MP470.HCl], in series [2] (25 mg/kg), the “AUC0-∞ in females relative to males” value is “approximately 3.8 fold” and the “time of peak plasma concentration” value lay within 0.5 to 12 h. Further, in [2] (100 mg/kg), the “AUC0-∞ in females relative to males” value is listed as around 2.9 fold and the “time of peak plasma concentration” value is 4 to 12 h. `N.N.[Cl][Pt][Cl]` [cisplatin, reference compound]: the tumor growth rate in [1] (5 mg/kg q7d (vehicle 78.04)) worked out at 33.8 mm3/d.

Consider `CC[C@@]1(O)C(=O)OCc2c1cc1n(c2=O)Cc2cc3c(CN(C)C)c(O)ccc3nc2-1` [topotecan, reference compound], for which the “Increase in DNA damage (γ-H2AX) over control” value in series [3] came to 65%.

With `Cl.S=C(NCc1ccc2c(c1)OCO2)N1CCN(c2ncnc3c2oc2ccccc23)CC1` [micronized MP470.HCl], in series [2] (100 mg/kg), the “AUC0-∞ in females relative to males” value is “approximately 3.4 fold” and the “time of peak plasma concentration” value was in the range of 4 to 12 h.

Take `S=C(NCc1ccc2c(c1)OCO2)N1CCN(c2ncnc3c2oc2ccccc23)CC1` [MP470 Esylate]: the Solubility in water in series [4] is 5.89 µg/mL. Consider `N.N.O=C([O-])C1(C(=O)[O-])CCC1.[Pt+2]` [Carboplatin, reference compound], for which the “increase of Rad51 levels over non-treatment levels” value in series [5] stood at 12 fold. The values for the half-maximal inhibitory concentration (IC50) in [6] and in series [7] were 20.1 µM and 173 µM, respectively.

Consider `COc1cc([C@@H]2c3cc4c(cc3[C@@H](O[C@@H]3O[C@@H]5CO[C@@H](C)O[C@H]5[C@H](O)[C@H]3O)[C@H]3COC(=O)[C@H]23)OCO4)cc(OC)c1O` [Etoposide, reference compound], for which the results for the 50% inhibitory concentration (IC50) in [8] and in [9] were 0.29 µM and 0.92 µM, respectively. Consider `O=c1[nH]cc(F)c(=O)[nH]1` [5-FU, 5-fluorouracil, reference compound], for which, in series [10], the tumor growth rate worked out at 19.5 mm3/d.
